Reference: PMC3928115, “Organophosphate-Induced Changes in the PKA Regulatory Function of Swiss Cheese/NTE Lead to Behavioral Deficits and Neurodegeneration” (PLoS ONE, 2014)

Molecular target: T1, Swiss Cheese (SWS) (Drosophila melanogaster, UniProt Q9U969)
T1 construct: native full-length SWS in fly head homogenate, not purified; sws1 null mutant used as control
Assay: esterase activity in fly head homogenates
Type: biochemical
Settings: untreated flies; activity very low in sws1 null, raised to about 160% with SWS overexpression

T1 sequence (Q9U969 whole entry): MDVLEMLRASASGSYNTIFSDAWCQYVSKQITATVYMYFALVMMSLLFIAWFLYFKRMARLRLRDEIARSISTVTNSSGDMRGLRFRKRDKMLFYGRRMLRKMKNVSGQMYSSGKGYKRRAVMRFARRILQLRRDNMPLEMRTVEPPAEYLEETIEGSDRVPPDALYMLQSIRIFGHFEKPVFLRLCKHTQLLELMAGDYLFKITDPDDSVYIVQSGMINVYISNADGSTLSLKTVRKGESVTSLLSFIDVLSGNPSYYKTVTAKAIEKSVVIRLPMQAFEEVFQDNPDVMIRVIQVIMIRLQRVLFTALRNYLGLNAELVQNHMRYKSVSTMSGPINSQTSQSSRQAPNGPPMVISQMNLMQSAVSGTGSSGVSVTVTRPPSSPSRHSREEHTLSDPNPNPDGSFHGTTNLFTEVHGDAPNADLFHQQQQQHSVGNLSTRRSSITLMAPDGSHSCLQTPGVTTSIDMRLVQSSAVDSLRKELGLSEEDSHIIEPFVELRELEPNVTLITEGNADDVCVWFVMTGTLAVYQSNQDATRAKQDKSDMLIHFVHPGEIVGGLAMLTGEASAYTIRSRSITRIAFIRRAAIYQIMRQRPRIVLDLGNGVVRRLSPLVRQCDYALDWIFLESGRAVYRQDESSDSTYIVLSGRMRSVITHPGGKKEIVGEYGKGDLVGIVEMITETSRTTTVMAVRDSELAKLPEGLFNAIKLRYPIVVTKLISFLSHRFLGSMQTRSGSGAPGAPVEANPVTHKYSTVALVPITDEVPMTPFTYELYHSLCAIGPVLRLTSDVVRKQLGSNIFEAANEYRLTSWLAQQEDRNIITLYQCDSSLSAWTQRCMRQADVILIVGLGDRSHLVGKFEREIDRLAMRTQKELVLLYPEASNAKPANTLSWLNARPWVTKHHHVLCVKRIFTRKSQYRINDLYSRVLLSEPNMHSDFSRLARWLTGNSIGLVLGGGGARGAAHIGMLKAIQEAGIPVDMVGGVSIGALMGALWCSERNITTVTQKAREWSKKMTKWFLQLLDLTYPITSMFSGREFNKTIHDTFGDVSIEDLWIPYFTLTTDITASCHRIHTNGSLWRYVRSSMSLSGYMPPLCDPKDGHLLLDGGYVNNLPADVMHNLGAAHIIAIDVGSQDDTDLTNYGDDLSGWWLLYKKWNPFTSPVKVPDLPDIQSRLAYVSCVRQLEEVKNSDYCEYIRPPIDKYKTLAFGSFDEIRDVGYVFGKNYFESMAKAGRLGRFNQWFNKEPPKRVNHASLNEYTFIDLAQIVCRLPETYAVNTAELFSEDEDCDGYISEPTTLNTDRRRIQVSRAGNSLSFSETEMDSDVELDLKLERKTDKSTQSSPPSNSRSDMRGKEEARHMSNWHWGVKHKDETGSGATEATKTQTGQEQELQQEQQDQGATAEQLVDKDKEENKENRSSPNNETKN

## CCCCC(=O)Oc1ccccc1 [phenyl valerate]
  esterase activity in fly head homogenates: hydrolyzing activity against phenyl valerate, a standard substrate to detect NTE activity
